Values of other authors as cited in patent US20090186081A1, “Disintegrating Loadable Tablets” (LifeCycle Pharma A/S, priority 2006, published 2009).
Structures can show the parent of a compound that is named as a salt. Where two headings read alike, the source gives them in different places.

Legend:
[1] = not given; remark: listed apart in the source
[2] = Table 1, Poorly-Soluble Drug Candidates
[3] = Table 2, Poorly-Soluble Drugs with Low Bioavailability

Compound | Solubility In Water [2] | Solubility In Water [3] | also measured
CCOC(=O)[C@H](CCc1ccccc1)N[C@@H](C)C(=O)N1CCC[C@H]1C(=O)O [Enalapril] | Sparingly |  | 
CN1C(C(=O)Nc2ccccn2)=C(O)c2ccccc2S1(=O)=O [Piroxicam] | Sparingly |  | 
CC(=O)OC[C@H]1O[C@@H]([S-])[C@H](OC(C)=O)[C@@H](OC(C)=O)[C@@H]1OC(C)=O.CCP(CC)CC.[Au+] [Auranofin] |  | Slightly soluble | Bioavailability ([1]; in vivo): Low (15-25%)
C[C@@H]1C[C@H]2[C@@H]3CCC4=CC(=O)C=C[C@]4(C)[C@@]3(Cl)[C@@H](O)C[C@]2(C)[C@@]1(O)C(=O)CCl [Mometasone] | Insoluble |  | 
CC(C)Cc1ccc(C(C)C(=O)O)cc1 (stereo not shown) [Ibuprofen] | Insoluble |  | 
C[C@]12CC[C@H]3[C@@H](CCC4=CC(=O)CC[C@@]43C)[C@@H]1CC[C@@H]2O [Testosterone] |  | Insoluble | Bioavailability ([1]; in words): Low
CO/N=C(\C(=O)N[C@@H]1C(=O)N2C(C(=O)O)=C(COC(C)=O)CS[C@H]12)c1csc(N)n1 [Cefotaxime] | Sparingly |  | 
CN1CCCC(n2nc(Cc3ccc(Cl)cc3)c3ccccc3c2=O)CC1 (stereo not shown) [Azelastine] | Insoluble |  | 
C=CCC1(CC(C)C)C(=O)NC(=O)NC1=O [Butalbital] | Insoluble |  | 
Cc1c(OCC(F)(F)F)ccnc1C[S+]([O-])c1nc2ccccc2[nH]1 (stereo not shown) [Lansoprazole] | Insoluble |  | 
COC(=O)C1=C(C)NC(C)=C(C(=O)OC(C)C)C1c1cccc2nonc12 (stereo not shown) [Isradipine] | Insoluble | Insoluble | 
COc1cc([C@@H]2c3cc4c(cc3[C@@H](O[C@@H]3O[C@@H]5CO[C@@H](C)O[C@H]5[C@H](O)[C@H]3O)[C@H]3COC(=O)[C@H]23)OCO4)cc(OC)c1O [Etoposide] | Very Slightly |  | 
C[C@@](Cc1ccc(O)c(O)c1)(NN)C(=O)O [Carbidopa] | Slightly |  | 
C#C[C@]1(O)CC[C@H]2[C@@H]3CCC4=Cc5oncc5C[C@]4(C)[C@H]3CC[C@@]21C [Danazol] |  |  | Bioavailability ([1]; in words): Low
CO[C@]12C[C@@H](COC(=O)c3cncc(Br)c3)CN(C)[C@@H]1Cc1cn(C)c3cccc2c13 [Nicergoline] | Insoluble |  | 
COc1cc2nc(N3CCN(C(=O)C4COc5ccccc5O4)CC3)nc(N)c2cc1OC (stereo not shown) [Doxazosin] | Slightly |  | 
COc1ccc2[nH]c([S+]([O-])Cc3ncc(C)c(OC)c3C)nc2c1 (stereo not shown) [Omeprazole] | Slightly |  | 
CN1CCN(C2=Nc3cc(Cl)ccc3Nc3ccccc32)CC1 [Clozapine] | Slightly |  | 
OCCN1CCN(CCCN2c3ccccc3Sc3ccc(C(F)(F)F)cc32)CC1 [Fluphenazine] |  | Insoluble | 
NC(=O)N1c2ccccc2C=Cc2ccccc21 [Carbamazepine] | Insoluble |  | 
CC(C(=O)O)c1ccc(-c2ccccc2)c(F)c1 (stereo not shown) [Flurbiprofen] | Slightly |  | 
NC(N)=Nc1nc(CSCCC(N)=NS(N)(=O)=O)cs1 [Famotidine] | Slightly | Slightly soluble | 
CC(C)(C)c1ccc(C(O)CCCN2CCC(C(O)(c3ccccc3)c3ccccc3)CC2)cc1 (stereo not shown) [Terfenadine] | Slightly |  | 
CC(CCc1ccc(O)cc1)NCCc1ccc(O)c(O)c1 (stereo not shown) [Dobutamine] | Sparingly |  | 
OC(CCN1CCCCC1)(c1ccccc1)C1CC2C=CC1C2 (stereo not shown) [Biperiden] |  | Sparingly soluble | 
CC(C)(C)NC(=O)[C@H]1CC[C@H]2[C@@H]3CC[C@H]4NC(=O)C=C[C@]4(C)[C@H]3CC[C@]12C [Finasteride] | Insoluble |  | 

Compound | Solubility In Water [2] | Solubility In Water [3] | also measured
COCCCC/C(=N\OCCN)c1ccc(C(F)(F)F)cc1 [Fluvoxamine] | Sparingly |  | 
CC(=O)O[C@H]1C(=O)[C@@]2(C)[C@H]([C@H](OC(=O)c3ccccc3)[C@]3(O)C[C@H](OC(=O)[C@H](O)[C@@H](NC(=O)c4ccccc4)c4ccccc4)C(C)=C1C3(C)C)[C@]1(OC(C)=O)CO[C@@H]1C[C@@H]2O [Paclitaxel] | Insoluble |  | 
CC1=C(/C=C/C(C)=C/C=C/C(C)=C\C(=O)O)C(C)(C)CCC1 [Isotretinoin] | Insoluble |  | 
OCCN1CCN(CCCN2c3ccccc3Sc3ccc(Cl)cc32)CC1 [Perphenazine] |  |  | Bioavailability ([1]; in words): Low
CC(=O)S[C@@H]1CC2=CC(=O)CC[C@]2(C)[C@H]2CC[C@@]3(C)[C@@H](CC[C@@]34CCC(=O)O4)[C@H]12 [Spironolactone] |  | Insoluble | 
CCOC(=O)[C@H](CCc1ccccc1)N[C@@H](C)C(=O)N1Cc2ccccc2C[C@H]1C(=O)O [Quinapril] | Insoluble |  | 
CCOC(=O)[C@H](CCc1ccccc1)N[C@@H](C)C(=O)N1[C@H](C(=O)O)C[C@@H]2CCC[C@@H]21 [Ramipril] | Insoluble |  | 
OC(Cn1cncn1)(Cn1cncn1)c1ccc(F)cc1F [Fluconazole] | Slightly |  | 
CC[C@H](C)C(=O)O[C@H]1C[C@@H](C)C=C2C=C[C@H](C)[C@H](CC[C@@H]3C[C@@H](O)CC(=O)O3)[C@H]21 [Lovastatin] | Insoluble | Insoluble | 
CN1CCC[C@@H]1CCO[C@](C)(c1ccccc1)c1ccc(Cl)cc1 [Clemastine fumarate] |  | Slightly soluble | 
Cc1nnc2n1-c1ccc(Cl)cc1C(c1ccccc1)=NC2 [Alprazolam] | Insoluble |  | 
COc1ccc(CCN2CCC(Nc3nc4ccccc4n3Cc3ccc(F)cc3)CC2)cc1 [Astemizole] | Insoluble | Insoluble | Bioavailability ([1]; in words): Low-moderate
COc1ccc2cc(CCC(C)=O)ccc2c1 [Nabumetone] | Insoluble | Insoluble | 
CCCCCc1cc(O)c2c(c1)OC(C)(C)[C@@H]1CCC(C)=C[C@@H]21 [Dronabinol] |  | Insoluble | Bioavailability ([1]; in vivo): Low 10-20%)
CC1CC(OC(=O)C(O)c2ccccc2)CC(C)(C)C1 (stereo not shown) [Cyclandelate] |  | Insoluble | Bioavailability ([1]; in words): Low
CC(=O)N1CCN(c2ccc(OCC3COC(Cn4ccnc4)(c4ccc(Cl)cc4Cl)O3)cc2)CC1 (stereo not shown) [Ketoconazole] | Insoluble |  | 
CN[C@H]1CC[C@@H](c2ccc(Cl)c(Cl)c2)c2ccccc21 [Sertraline] | Slightly | Slightly soluble | 
Cc1ccc(-c2nc3ccc(C)cn3c2CC(=O)N(C)C)cc1 [Zolpidem] | Sparingly |  | 
O=C1NC(=O)C(c2ccccc2)(c2ccccc2)N1 [Phenytoin] | Insoluble |  | 
OCCN(CCO)c1nc(N2CCCCC2)c2nc(N(CCO)CCO)nc(N3CCCCC3)c2n1 [Dipyridamole] | Slightly |  | 
CCOC(=O)C1=C(C)NC(C)=C(C(=O)OC)C1c1cccc(Cl)c1Cl (stereo not shown) [Felodipine] | Insoluble | Insoluble | 
Cc1cccc(Nc2ccccc2C(=O)O)c1C [Mefenamic acid] | Slightly |  | 
CCc1cccc2c3c([nH]c12)C(CC)(CC(=O)O)OCC3 (stereo not shown) [Etodolac] | Insoluble |  | 
O=[N+]([O-])O[C@H]1CO[C@H]2[C@@H]1OC[C@H]2O[N+](=O)[O-] [Isosorbide dinitrate] | Sparingly | Sparingly soluble | 
